Data from patent publication US5925332A, “Radioimaging and radiochemotherapy phenolic thioether amines and acyl derivatives thereof for use in diagnosing and treating pigmentation disorders” (The Governors of the University of Alberta, priority 1992, dated 1999).
In brackets after ≈: the same amount, converted by molar mass. Entries after “also recorded” stand apart in the source; their conditions may differ.

Tests used:
[1] = Determination of NAP-TEA and N-Acetyl-4-S-CAP in plasma after i.p. injection; format: in vivo, C57BL/6J Black Mouse; details: NAP-TEA 300 mg/kg i.p., plasma at 5 and 20 minutes
Experimental: A C57BL/6J Black Mouse was injected at 300 mg/kg body weight by i.p. administration of NAP-TEA. 100 μl of plasma was extracted from the mouse after 5 minutes of injection and after 20 minutes of injection. The plasma samples were treated in accordance with the procedure of Example 2. The plasma samples were passed through a Sep-Pak C18 cartridge in either 5% methanol:water to produce eluent 1 or 50% methanol/water to produce eluent 2. Eluent 2 had the aqueous methanol removed therefrom to provide a residue. The residue was redissolved in methanol/0.1% acetic acid and water in a ratio of 50:50 and subjected to HPLC for both the 5 minute and 20 minute plasma samples. […] The concentration of N-Acetyl-4-S-CAP in the 5 minute extracted sample being considerably greater than in the 20 minute extracted sample to indicate that in vivo NAP-TEA is deacylated to N-Acetyl-4-S-CAP which in turn is then taken up by the mouse melanocytes.

tyrosinase = details: cited from earlier work
HeLa = assay: In vitro cytotoxicity, MTT assay, HeLa; format: cell-based; details: Homo sapiens, 120 h, 5 days
Experimental: (§1) MTT assay in accordance with the standard procedure
(§2) MTT solution (Sigma catalog No. M2128) was dissolved in PBS at 1 mg/ml and filtered to sterilize the solution. The solution was stored in the dark at 4° C. until used. The growing cells were harvested, counted and inoculated into 96 well microtiter plates (1-2×10^3 cells/well).After 24 h, drugs were applied to culture wells, and the cultures were incubated for 5 days at 37° C. At this time, 50 μl of MTT solution was added to microculture wells. After 4 h incubation at 37° C., supernatant was removed from each well. 150 μl of DMSO was added to solubilized the MTT-formazan product. After mixing gently, absorbance at 540 nm was measured with ELISA plate spectrophotometer.

melanoma = details: mice in vivo; cited from earlier work
monoamineoxidase (MAO) = details: cited from earlier work; for General (non-specific) cytotoxicity: via aldehyde metabolite formed by plasma MAO
SK-MEL-23 = assay: In vitro cytotoxicity, MTT assay, SK-MEL-23; format: cell-based; details: 120 h; SK-MEL-23, MTT, 5 days
Experimental: as §1, §2

UT amelanotic melanoma = assay: In vitro cytotoxicity, MTT assay, UT amelanotic melanoma; format: cell-based; details: 120 h, 5 days
Experimental: as §1, §2

mushroom tyrosinase = assay: Utilization with mushroom tyrosinase (remaining compound by HPLC); format: biochemical; details: 11 units tyrosinase, pH 6.8, 37° C.
Experimental: A reaction mixture consisting of NAP-TEA (500 μmol) and of mushroom tyrosinase (11 units) in 1.0 ml of 0.05 M sodium phosphate buffer (pH 6.8) was incubated at 37° C. in a water bath. The reaction was stopped periodically by cooling with ice. Aliquots removed at set time intervals were rapidly cooled to 0° C. in an ice bath and the remaining NAP-TEA was measured using HPLC. HPLC instrument and conditions Water 600 E liquid chromatograph system Conditions: μBondapak C18, Radial-Pak Cartridge (Waters) Mobile phase; 70% MeOH/H2 O, 1 ml/min Detector; Waters Model 441 UV absorbance detector Detection; Wavelength 254 nm

epidermal melanocytes = details: topical application, cited from earlier work
melanoma tissue = assay: Distribution of 4-S-CAP in radioimaging or radiochemotherapy; details: in vivo
Excerpt: When the compounds of the formula (I) are used in radiochemotherapy they may be combined with suitable pharmaceutical excipients and carriers wherein the radioactive selected compounds are present in a biologically effective amount in the carriers. Suitable biologically, compatible carriers may be solutions when injected by either the IP or SC route. Suitable biologically, compatible carriers for injection include physiologically normal saline and other types of readily injectable solutions which are well understood by those skilled in the art and readily available. […] For purposes of injection, the concentration of the radiolabelled compound in the injectable solution is normally in the range of 200 to 1200 mg per kg of body weight where the preferred dosage is in the range of 300 mg to 500 mg per kg of body weight. In the following examples, further information is provided as to the amount of compounds injected for purposes of radioimaging.

follicular melanocytes = details: cited from earlier work
B16F10 melanoma [2] = assay: In vivo biodistribution by whole-body autoradiography; parameters: species or system mouse
Experimental: 48 hours after injection the animal was killed, frozen and prepared for sectioning. The 20-μm sections were freeze-dried and exposed to x-ray film for whole-body autoradiography.
The s.c. melanoma tumor and the lung with melanoma colonies were the only organs displaying a significant accumulation of the radioactivity.

B16F10 melanoma [3] = assay: In vivo covalent binding of (14C)-NACAP to tissues of melanoma-bearing mice; details: female C57BL/6J mice, single i.p. injection, 48 hr, mean + S.D. (n = 3)
Experimental: In vivo covalent binding of (^14 C)-N-acetyl-4-S-CAP was investigated in mice. Female C57BL/6J mice received a single intraperitoneal injection of 2.0 mmol/kg (^14 C)-N-acetyl-4-S-CAP compound. The animals were killed 48 hours later. The tissues were removed and the covalent binding was determined as follows.
Five different tissues were examined for covalent binding of radioactively labelled N-acetyl-4-S-CAP intermediate(s). The maximum binding of N-acetyl-4-S-CAP was detected in the s.c. melanoma tumor and melanoma colony-bearing lung tissues. […]
^a Female C57BL/6J mice received a single intraperitoneal injection o
2.0 nmol/kg (^14 C)NACAP. The animals were killed 48 hr later, the
tissues were removed, and the covalent binding was determined as describe
^b The data are presented as the means + S.D. (n = 3).

[4] = O-deacylation of NAP-TEA in mouse plasma in vitro; format: in vitro ADME; details: 10 μg in 100 μl mouse plasma, shaken one-half minute, HPLC
Experimental: NAP-TEA was introduced to mouse plasma to determine by in vitro experimentation the extent to which NAP-TEA is deacetylated to form N-Acetyl-4-S-CAP. The procedure was as follows. Into 100 μl of mouse plasma, 10 μg of NAP-TEA was introduced. The mixture was shook for one-half of a minute and then passed through a Sep-Pak C18 cartridge in either 7 ml of 5% methanol/water to form eluent 1 or in 4 ml of 50% methanol/water to form eluent 2. Both eluents 1 and eluents 2 were collected. Aqueous methanol was removed from eluent 2 to provide a residue which was subjected to HPLC under the following conditions. […] The residue was mixed with methanol:water at 50:50 with a flow rate through the radiograph at 1 ml/min. The detector was a Water Associates Model 441 with detection by ultraviolet at 250 nm.

hair follicles = assay: Depigmenting effect on newborn black mice; format: in vivo, C57BL/6J black mice; details: single i.p. dose 300 mg/kg, 3 day old mice
Experimental: Six newborn (3 day old) C57BL/6J black mice were injected i.p. with a single dose of 0.1 mL of NAP-TEA solution (300 mg/kg body weight).

[5] = test system: follicular melanocytes (black hair); assay: Melanocytotoxicity in vivo (depigmentation of black hair); details: 300 mg/kg i.p. daily for 14 days, plucked C57BL/6J black mice
Experimental: Hairs were plucked manually from the back of 6-8 week old C57BL/6J black mice (4 mice). Starting on day 2, daily for 14 days NAP-TEA was injected i.p. The dose was 300 mg/kg body weight.

functioning melanocytes = assay: In vivo melanocytotoxicity in pig, topical application, Dopa-positive melanocyte count; parameters: species or system Yucatan pig; details: topical twice a day for 8 weeks
Experimental: Solutions of 15% NAP-TEA in DMSO(w/v) and of 15% NAP-TEA in 60% EtOH(w/v) were prepared for topical application to a Yucatan pig. NAP-TEA was applied to the back skin of the pig twice a day for 8 weeks. After 8 weeks, punch biopsy was performed from the application area and from normal skin. Specimens obtained were kept in 2N NaBr solution for 3 hours followed by separation of the epidermis from dermis. Specimens of epidermis were incubated for 3 hours in phosphate buffer (pH 7.4) containing L-Dopa. The specimens were fixed in 10% neutral formalin solution and then washed twice in PBS. Finally, the specimens were mounted in glycerol gel. The numbers of Dopa-positive melanocytes in 9 adjacent 1 mm^2 fields from each sample were counted.

[6] = parameters: species or system animals; details: in vivo
Experimental: Experimental tests on animals indicate per single dose toxicity levels in the range of 1,400 mg/kg of body weight for the preferred compound of formula (II), NAP-TEA.

For `CC(=O)NCCSc1ccc(O)cc1` [N-Acetyl-4-S-CAP, N-acetyl-4-S-cysteaminylphenol], the “Compound detected in plasma by HPLC after NAP-TEA injection” value [1] is given as “evidence of N-Acetyl-4-S-CAP”, the Substrate of tyrosinase (tyrosinase) is given as “superior substrate” and the IC50 (HeLa) is given as 75 µg/mL (≈ 355 µM). For the same compound, the “Antimelanoma effect (lifespan of melanoma-bearing mice, inhibition of melanoma growth)” value (melanoma) was “potent antimelanoma properties”, the “General (non-specific) cytotoxicity” value (monoamineoxidase (MAO)) was “absence of such cytotoxicity” and the IC50 (SK-MEL-23) was 25 µg/mL (≈ 118 µM). The IC50 (UT amelanotic melanoma) was 12 µg/mL (≈ 56.8 µM) and the “Substrate of mushroom tyrosinase (concentration remaining in the reaction mixture)” value (mushroom tyrosinase) was “dropped off rapidly over 25 minutes to almost zero amount after 50 minutes”.

For `NCCSc1ccc(O)cc1` [Compound 4-S-CAP, 4-S-cysteaminylphenol], the “Antimelanoma effect (lifespan of melanoma-bearing mice, inhibition of melanoma growth)” value (melanoma) is listed as “potent agent in prolonging the lifespan of melanoma-bearing mice”, the “Inflammatory changes of the skin” value (epidermal melanocytes; guinea pigs) is listed as “prominent” and the “Depigmentation of black guinea pig skin” value (epidermal melanocytes) is listed as “demonstrated depigmenting properties”. For the same compound, the “Substrate for monoamineoxidase (MAO)” value (monoamineoxidase (MAO); plasma) was “substrate for monoamineoxidase (MAO)”, the “General (non-specific) cytotoxicity” value (monoamineoxidase (MAO)) was “high toxicity; also recorded: some general cytotoxicity” and the “Tissue accumulation in radioimaging or radiochemotherapy” value (melanoma tissue) was “collects in the eye as well as in the melanoma tissue”. For the same compound, the “Effect on albino follicles” value (follicular melanocytes; albino follicles) was “no effect on the albino follicles” and the “Cytotoxicity on black hair follicles” value (follicular melanocytes; black follicles) was “demonstrated cytotoxicity in the depigmentation of black hair follicles”.

With `CC(=O)NCCS[14c]1[14cH][14cH][14c](O)[14cH][14cH]1` [(14C)-NACAP, N-acetyl-4-S-cysteaminyl (U-^14 C) phenol] the “Radioactivity in normal organs by whole-body autoradiography” value (B16F10 melanoma [2]; 48 hours after i.p. injection, mouse) was “not detectable in any normal organs except the lumen of the large intestine”, the “Radioactivity in melanoma-bearing organs by whole-body autoradiography” value (B16F10 melanoma [2]; mouse with s.c. B16F10 tumor and B16F10 lung colonies, single i.p. injection 5.0 μCi, 48 hours) was “showed radioactivity in infected organs” and the “Convalent Binding, B16F10 melanoma s.c. tumor” value (B16F10 melanoma [3]) was 0.521 + 0.076 nmol covalently bound/kg of protein. The “Convalent Binding, kidney” value (B16F10 melanoma [3]) was 0.008 + 0.001 nmol covalently bound/kg of protein, the “Convalent Binding, liver” value (B16F10 melanoma [3]) was 0.013 + 0.003 nmol covalently bound/kg of protein and the “Convalent Binding, lungs with B16F10 melanoma colonies” value (B16F10 melanoma [3]) was 0.330 + 0.113 nmol covalently bound/kg of protein. The “Convalent Binding, lungs without B16F10 melanoma colonies” value (B16F10 melanoma [3]) was 0.010 + 0.001 nmol covalently bound/kg of protein.

With `CC(=O)NCCSc1ccc(OC(C)=O)cc1` [NAP-TEA, N-{2-((4-Acetoxyphenyl)-thio)ethyl}acetamide] the “O-deacylation to N-Acetyl-4-S-CAP in mouse plasma” value [4] was “readily deacylated by the mouse plasma”, the “Compound detected in plasma by HPLC after NAP-TEA injection” value [1] was “no evidence of NAP-TEA” and the “Depigmentation of hair follicles in newborn mice” value (hair follicles) was “depigmented in all hair follicles with the growing hair being light grey”. For the same compound, the IC50 (HeLa) was 77 µg/mL (≈ 304 µM), the “Depigmentation of replacement hair” value [5] was “mice were depigmented with the new replacement hair being almost pure white” and the “Number of functioning melanocytes (Average of 9 fields)” value (functioning melanocytes; 15% NAP-TEA in 60% EtOH) was 74 ± 25 /mm^2. The “Number of functioning melanocytes (Average of 9 fields)” value (functioning melanocytes; 15% NAP-TEA in DMSO) was 32 ± 14 /mm^2, the IC50 (SK-MEL-23) was 31 µg/mL (≈ 122 µM) and the IC50 (UT amelanotic melanoma) was 14 µg/mL (≈ 55.3 µM). For the same compound, the “per single dose toxicity level” value [6] was ~1,400 mg/kg of body weight and the “Substrate of mushroom tyrosinase (concentration remaining in the reaction mixture)” value (mushroom tyrosinase) was “not a substrate of mushroom tyrosinase”.

For `COC(=O)C(N)CSc1ccc(O)cc1` (stereo not drawn) [methyl ester of 4-S-CP], the “Antimelanoma effect (lifespan of melanoma-bearing mice, inhibition of melanoma growth)” value (melanoma) is listed as “some inhibition of melanoma growth”.

In the case of `NC(CSc1ccc(O)cc1)C(=O)O` (stereo not drawn) [Compound 4-S-CP, 4-S-cysteinylphenol], the “Antimelanoma effect (lifespan of melanoma-bearing mice, inhibition of melanoma growth)” value (melanoma) is given as “some inhibition of melanoma growth”.
